Reference: US8344025B2, “Oxalic acid derivatives and use thereof as physiological cooling active ingredients” (Symrise AG, priority 2007, dated 2013)

Test system: panel of experts
Test: Organoleptic test of cooling action in confectioner's fondant, rated by a panel of experts
Type: in vivo
Conditions: scale from 1 (no cooling action) to 9 (extremely strong cooling action), 0.05 wt. % relative to the complete preparation
Experimental: The compounds according to Examples 1 to 12 were tested for their organoleptic properties, in particular their cooling action. To this end, they were dissolved, in each case in a specific final concentration, in a mass prepared from sucrose (saccharose) and water (confectioner's fondant, supplier Nordzucker AG, Nordstemmen) and evaluated by a panel of experts. Sensory impressions were rated and the cooling action was assessed on a scale from 1 (no cooling action) to 9 (extremely strong cooling action). The results were convincing in every case.

## CNC(=O)C(=O)O[C@@H]1C[C@H](C)CC[C@H]1C(C)C [Example 2, L-menthyl N-methyl oxamate]
  cooling action: 6
